Measured values published in ChEMBL document CHEMBL1201862, “PubChem BioAssay data set” (2004).
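Exposure lasted 48 hours, with cells grown in 96-well plates and compounds tested at five concentrations. GI50 = concentration required for 50% inhibition of growth.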 The source made the active and inactive calls. Rule as the data show it: active = GI50 up to about 1.1 µM and inactive = higher.

Legend:
Assay in all cases: NCI-60 cell line screen, 48 h
SK-OV-3 = test system: SK-OV-3
A498 = test system: A498
KM12 = test system: KM12
UACC-62 = test system: UACC-62
TK-10 = test system: TK-10
M14 = test system: M14
COLO 205 = test system: COLO 205
HT-29 = test system: HT-29
SNB-78 = test system: SNB-78
RXF 631 = test system: RXF 631
HOP-92 = test system: HOP-92
786-0 = test system: 786-0
ACHN = test system: ACHN
OVCAR-4 = test system: OVCAR-4
CAKI-1 = test system: CAKI-1
NCI-H226 = test system: NCI-H226
SW-620 = test system: SW-620
UO-31 = test system: UO-31
EKVX = test system: EKVX
HL-60 = test system: HL-60
NCI-H23 = test system: NCI-H23
SK-MEL-28 = test system: SK-MEL-28
CCRF-CEM = test system: CCRF-CEM
HCC 2998 = test system: HCC 2998
SNB-75 = test system: SNB-75
HCT-116 = test system: HCT-116
SK-MEL-2 = test system: SK-MEL-2
DMS-273 = test system: DMS-273
DMS-114 = test system: DMS-114
SN12C = test system: SN12C
LXFL 529 = test system: LXFL 529
IGROV-1 = test system: IGROV-1
A549 = test system: A549
M19-MEL = test system: M19-MEL
NCI-H522 = test system: NCI-H522
SF-295 = test system: SF-295
RXF 393 = test system: RXF 393
LOX IMVI = test system: LOX IMVI
SNB-19 = test system: SNB-19
HOP-62 = test system: HOP-62
OVCAR-8 = test system: OVCAR-8
OVCAR-3 = test system: OVCAR-3
SR = test system: SR
UACC-257 = test system: UACC-257
MOLT-4 = test system: MOLT-4
HCT-15 = test system: HCT-15
KM-20L2 = test system: KM-20L2
OVCAR-5 = test system: OVCAR-5
U-251 = test system: U-251
SK-MEL-5 = test system: SK-MEL-5
NCI-H460 = test system: NCI-H460
RPMI-8226 = test system: RPMI-8226
XF498 = test system: XF498
HOP-18 = test system: HOP-18
SF-268 = test system: SF-268
Malme-3M = test system: Malme-3M
K562 = test system: K562
SF-539 = test system: SF-539

COc1ccc(NC(=O)CC/C(CC(=O)c2ccco2)=N/Nc2ccc([N+](=O)[O-])cc2[N+](=O)[O-])cc1
GI50 (SK-OV-3): > 100 µM (inactive) | GI50 (A498): > 100 µM (inactive) | GI50 (KM12): > 100 µM (inactive) | GI50 (UACC-62): 34.4 µM (inactive) | GI50 (TK-10): > 100 µM (inactive) | GI50 (M14): > 100 µM (inactive) | GI50 (COLO 205): > 100 µM (inactive) | GI50 (HT-29): 48 µM (inactive) | GI50 (SNB-78): > 100 µM (inactive) | GI50 (RXF 631): 38.8 µM (inactive) | GI50 (HOP-92): 34.4 µM (inactive) | GI50 (786-0): > 100 µM (inactive) | GI50 (ACHN): > 100 µM (inactive) | GI50 (OVCAR-4): 96.2 µM (inactive) | GI50 (CAKI-1): > 100 µM (inactive) | GI50 (NCI-H226): > 100 µM (inactive) | GI50 (SW-620): 99.8 µM (inactive) | GI50 (UO-31): > 100 µM (inactive) | GI50 (EKVX): > 100 µM (inactive) | GI50 (HL-60): 30.1 µM (inactive) | GI50 (NCI-H23): 14.3 µM (inactive) | GI50 (SK-MEL-28): > 100 µM (inactive) | GI50 (CCRF-CEM): 23.7 µM (inactive) | GI50 (HCC 2998): > 100 µM (inactive) | GI50 (SNB-75): > 100 µM (inactive) | GI50 (HCT-116): 76.2 µM (inactive) | GI50 (SK-MEL-2): 72.1 µM (inactive) | GI50 (DMS-273): 57.7 µM (inactive) | GI50 (DMS-114): 23.6 µM (inactive) | GI50 (SN12C): > 100 µM (inactive) | GI50 (LXFL 529): 43.2 µM (inactive) | GI50 (IGROV-1): > 100 µM (inactive) | GI50 (A549): > 100 µM (inactive) | GI50 (M19-MEL): 58.1 µM (inactive) | GI50 (NCI-H522): 55 µM (inactive) | GI50 (SF-295): 62.1 µM (inactive) | GI50 (RXF 393): 75.9 µM (inactive) | GI50 (LOX IMVI): 39.7 µM (inactive) | GI50 (SNB-19): > 100 µM (inactive) | GI50 (HOP-62): > 100 µM (inactive) | GI50 (OVCAR-8): > 100 µM (inactive) | GI50 (OVCAR-3): 42.6 µM (inactive) | GI50 (SR): 26.7 µM (inactive) | GI50 (UACC-257): 49.8 µM (inactive) | GI50 (MOLT-4): 29.3 µM (inactive) | GI50 (HCT-15): > 100 µM | GI50 (KM-20L2): > 100 µM (inactive) | GI50 (OVCAR-5): > 100 µM (inactive) | GI50 (U-251): > 100 µM (inactive) | GI50 (SK-MEL-5): 48.4 µM (inactive) | GI50 (NCI-H460): > 100 µM (inactive) | GI50 (RPMI-8226): 17.1 µM (inactive) | GI50 (XF498): 22.8 µM (inactive) | GI50 (HOP-18): 26.2 µM (inactive) | GI50 (SF-268): 64 µM (inactive) | GI50 (Malme-3M): > 100 µM (inactive) | GI50 (K562): 32 µM (inactive) | GI50 (SF-539): > 100 µM (inactive)

NC(=O)Nc1c([N+](=O)[O-])cc(C(F)(F)F)cc1[N+](=O)[O-]
GI50 (A498): > 100 µM (inactive) | GI50 (KM12): 57.8 µM (inactive) | GI50 (UACC-62): 19.4 µM (inactive) | GI50 (TK-10): > 100 µM (inactive) | GI50 (M14): > 100 µM (inactive) | GI50 (COLO 205): 34.5 µM (inactive) | GI50 (HT-29): 33.7 µM (inactive) | GI50 (SNB-78): > 100 µM (inactive) | GI50 (RXF 631): 65.9 µM (inactive) | GI50 (HOP-92): 40.5 µM (inactive) | GI50 (786-0): > 100 µM (inactive) | GI50 (ACHN): > 100 µM (inactive) | GI50 (OVCAR-4): 63.1 µM (inactive) | GI50 (CAKI-1): > 100 µM (inactive) | GI50 (NCI-H226): > 100 µM (inactive) | GI50 (SW-620): 51.2 µM (inactive) | GI50 (UO-31): > 100 µM (inactive) | GI50 (EKVX): > 100 µM (inactive) | GI50 (HL-60): 33.7 µM (inactive) | GI50 (NCI-H23): 43.8 µM (inactive) | GI50 (SK-MEL-28): > 100 µM (inactive) | GI50 (CCRF-CEM): > 100 µM (inactive) | GI50 (HCT-116): 59.4 µM (inactive) | GI50 (SK-MEL-2): > 100 µM (inactive) | GI50 (DMS-273): > 100 µM (inactive) | GI50 (SN12C): > 100 µM (inactive) | GI50 (LXFL 529): > 100 µM (inactive) | GI50 (IGROV-1): > 100 µM (inactive) | GI50 (A549): > 100 µM (inactive) | GI50 (NCI-H522): 32.6 µM (inactive) | GI50 (SF-295): > 100 µM (inactive) | GI50 (RXF 393): > 100 µM (inactive) | GI50 (LOX IMVI): 44.7 µM (inactive) | GI50 (SNB-19): > 100 µM (inactive) | GI50 (HOP-62): > 100 µM (inactive) | GI50 (OVCAR-8): 57.5 µM (inactive) | GI50 (OVCAR-3): 28.8 µM (inactive) | GI50 (SR): > 100 µM (inactive) | GI50 (UACC-257): 72.3 µM (inactive) | GI50 (MOLT-4): > 100 µM (inactive) | GI50 (HCT-15): 65.8 µM | GI50 (KM-20L2): 29.2 µM (inactive) | GI50 (OVCAR-5): > 100 µM (inactive) | GI50 (U-251): > 100 µM (inactive) | GI50 (SK-MEL-5): 49.3 µM (inactive) | GI50 (NCI-H460): 48.1 µM (inactive) | GI50 (RPMI-8226): > 100 µM (inactive) | GI50 (XF498): 53.6 µM (inactive) | GI50 (SF-268): > 100 µM (inactive) | GI50 (K562): 56.2 µM (inactive) | GI50 (SF-539): > 100 µM (inactive)
